The values that follow come from patent publication US20080145313A1, “Compositions and Methods for the Treatment and Prevention of Neoplastic Disorders” (Genesis Research & Development Corporation Limited, priority 2006, published 2008).

One data set concerns A549 tumors. As to the kind of experiment: Uptake of Alexa 555-labeled siRNA into A549 tumor cells in vivo after intratumoral injection. On the set-up: species or system mouse. To be noted: 25 μg i.t. The method, then: An Alexa 555-labeled control siRNA was used to determine the cellular uptake of siRNA in tumor tissues when given via intratumoral (i.t.) injection. A549 cells (6−8×10^6 cells) were s.c. inoculated into CD-1 nude mice. Once the A549 tumors reached a size of approximately 100 mm^3, mice were divided into two groups of four mice each. The Alexa 555-labeled Stealth™ siRNA (SEQ ID NO: 5111 (DNA), and SEQ ID NO: 5300 (RNA); Invitrogen Corp.) at a dose of 25 μg (in 50 μl) was injected into tumors of one group. 50 μl PBS was injected into tumors of a negative control group. Tumors were harvested at 6 and 24 h after injection and placed in a labeled cryomold (Tissue-TeK® Crymold®; ProSciTech, Thuringowa, Queensland, Australia) and covered with OCT tissue freezing medium (O.C.T. Compound, ProSciTech). The mold was gently submerged in liquid nitrogen for approximately one minute until OCT turned white and opaque. Tissues were stored at minus 80° C. until sections were cut. Tissues were allowed to reach −20° C. before processing in a Leica Cryostat (Leica Microsystems, Inc., Bannockburn Ill.) at 10 microns. Sections were picked up on Super Frost Plus slides (Esco, Biolab Scientific, New Zealand). After air-drying, sections were fixed in freshly prepared 2% paraformaldehyde solution for 2 minutes at room temperature and then rinsed in PBS to remove the fixative. The slides were mounted in Prolong Gold antifade reagent with DAPI (Molecular Probes®, Invitrogen Corp.), covered with cover slips and sealed to the slides with clear nail polish. The slides were stored at 4° C. in the dark. Fluorescence in the tumor samples was visualized using a Zeiss Axioskop Microscope (Carl Zeiss microimaging, Inc., Thornwood N.Y.) and Leica SP-2 Confocal Microscope (Leica Microsystems, Inc.). Autofluorescence in tumor tissues was very low in all filters examined (green, red and UV). […]

Another data set deals with A549 xenografted tumors. The experiment in a line: Intratumoral siRNA treatment of established A549 tumors in CD-1 nude mice. Format: in vivo, mouse. As to the method: A549 cells (6−8×10^6 cells) were s.c. inoculated into CD-1 nude mice as described above. When tumors reached an average volume of approximately 100 mm^3, the tumor-bearing mice were randomly assigned into three different treatment groups (RRM1 siRNA, control siRNA and PBS) with 5 to 6 mice in each group. There were no significant differences in tumor volumes among groups prior to the initiation of treatments. Mice were anesthetized by gaseous isoflurane and 50 μl siRNA or PBS was injected directly into tumors using a 30-gauge needle. Two experiments were conducted. In the first experiment (IT#1), the animals received a dose of 50 μg of siRNA in each intratumoral (i.t.) injection and the injections were performed 3 times per week for 2 weeks. In the second experiment (IT#2), 25 μg siRNA was used and mice were injected 3 times per week for 3 weeks. The tumor volume was determined immediately before each injection by perpendicular measurements of the shortest and longest diameters as described above.

In a further data set the test system is A549 xenograft tumor. As to the kind of experiment: Xenograft tumor growth of A549 cells transfected with siRNA pre-implantation in CD-1 nude mice. The data set is classed as in vivo, mouse. As to the method:
To determine the effect of RRM1 knockdown on tumor growth, A549 cells (human lung cancer cell line; ATCC No. CCL-185) were reverse-transfected prior to implantation in CD-1 nude mice. In 175 cm^2 culture flasks, 10×10^6 A549 cells (in RPMI supplemented with 10% fetal calf serum) were added to pre-made lipoplexes. To make lipoplexes, Lipofectamine RNAiMAX in serum-free RPMI was added to an equal volume of serum-free RPMI containing siRNA (RRM1-2; SEQ ID NO: 4831 (DNA), and SEQ ID NO: 5137 (RNA)) and a control siRNA (SEQ ID NO: 4804 (DNA), and SEQ ID NO: 5301 (RNA)). After addition of cells, the final concentration of siRNA in the flask was 10 nM. Untransfected cells served as a further control. Flasks were incubated at 37° C. for 24 h to allow transfection to proceed.
The cells were harvested by trypsinization 24 h after the transfection, washed twice in PBS and viable cells were counted. Equal numbers of cells (1×10^7) were inoculated into CD-1 nude mice (n=7-9). Briefly, 5 to 7 weeks old nude mice were subcutaneously (s.c.) injected in the right flank with A549 cells in 100 μl PBS. Tumor growth was monitored 3 times per week by measuring tumor sizes using a digital caliper. Tumor volume was expressed in […] using the formula: V=a^2×b×0.52, where a and b represent the minimum and maximum tumor diameter, respectively. Mean tumor volumes calculated from each measurement were then plotted in a standard graph to compare the tumor growth of transfected cells to that of control.
To determine the effect of siRNA-mediated knockdown of HK-II, CAD, IMPDH2, RRM2, SLC16A1 and SLC29A1 on tumor growth, A549 cells (human lung cancer cell line; ATCC No. CCL-185) were reverse-transfected prior to implantation in CD-1 nude mice as described above with siRNAs given in SEQ ID NO: 5307 (DNA), and SEQ ID NO: 5304 (RNA) for RRM2, SEQ ID NO: 4932 (DNA), and SEQ ID NO: 5227 (RNA) for ENT1, SEQ ID NO: 4813 (DNA), and SEQ ID NO: 5119 (RNA) for HK-II, SEQ ID NO: 4827 (DNA), and SEQ ID NO: 5133 (RNA) for CAD, SEQ ID NO: 4879 (DNA), and SEQ ID NO: 5182 (RNA) for IMPDH2 and SEQ ID NO: 4924 (DNA), and SEQ ID NO: 5219 (RNA) for SLC16A1, respectively. The siRNA given in SEQ ID NO: 4804 (DNA), and SEQ ID NO: 5301 (RNA) was used as control.
In two separate experiments, CD-1 mice were divided into five groups that received untransfected A549 cells, cells transfected with control siRNA or three different siRNAs (as listed above), respectively. Cells were transfected in vitro using the method as described in Example 8, and 24 h after transfection, s.c. inoculated into mice. Tumor growth was measured 3 times per week. In the first experiment, mice received cells transfected with siRNA targeting RRM2, HK-II or SLC29A1 and were monitored for 33 days. In the second experiment, mice received cells transfected with siRNA targeting CAD, IMPDH2 or SLC16A1, and were monitored for 26 days. […] Similarly, preliminary data indicated tumor growth rate was reduced for the groups receiving cells transfected with siRNA targeting CAD and SLC16A1. Twenty-six days after cell inoculation, the tumor volume for mice with cells transfected with siRNA targeting CAD or SLC16A1 was 97.2±7.3 mm^3 or 110.1±28.1 mm^3, respectively.

For a further data set, the system named is HCT-116 cells. The experiment in a line: 5FU toxicity in HCT-116 cells after TYMS or DHFR knockdown, SYBR Green. Format: cell-based. The conditions noted are these: cells transfected with 0.1 nM siRNA; 5FU continuous for 3 days; read-out: IC50 value of 5FU following TYMS knockdown, HCT-116. The method, then:
(§1) HCT-116 and A549 cells were transfected as described above with 0.1, 1.0 and 10 nM of three TYMS-specific siRNAs, labeled TYMS-1, TYMS-2 and TYM-3 (SEQ ID NO: 4833-4835 (DNA), and SEQ ID NO: 5139-5141 (RNA), or 1.0 and 10 nM control siRNAs (809-ctrl; SEQ ID NO: 4805 (DNA), and SEQ ID NO: 5302 (RNA) and 81ctrl; SEQ ID NO: 4804 (DNA), and SEQ ID NO: 5301 (RNA)). HCT-116 and A549 cells were also similarly transfected with 0.1, 1.0 and 10 nM of three DHFR-specific siRNAs, labeled DHFR-1, DHFR-2 and DHFR-3 (SEQ ID NO: 4836-4838 (DNA), and SEQ ID NO: 5142-5144 (RNA)), or control siRNA (SEQ ID NO: 4805 (DNA), and SEQ ID NO: 5302 (RNA)). Twenty four hours after transfection, cells were exposed to 5FU using a serial dilution starting at 44 μM, in medium containing either 10% normal FCS or 10% dialyzed FCS as described above. 5FU treatment was continuous for 3 days, at which time cell growth was analyzed by measuring DNA content per well using the SYBR Green assay outlined above. […] This combinatorial inhibitory effect was further increased when experiments were done in medium containing dialyzed FCS (FIGS. 27D-F; FIGS. 28D-F).
(§2) FIGS. 29 and 30 show transfection with DHFR siRNA similarly led to a dose-dependent increase in growth inhibition above that caused by the drug alone (control siRNA-transfected cells) in HCT-116 cells (FIGS. 29A-C), and A549 cells (FIGS. 30A-C). This combinatorial inhibitory effect was further increased when experiments were done in medium containing dialyzed FCS (FIGS. 29D-F; FIGS. 30D-F). The changes in the IC50 value for 5FU in HCT-116 and A549 cells following TYMS knockdown by individual siRNAs are listed in Table 16 below.

In data set [1] the test system is A549 cells. The experiment in a line: 5FU toxicity in A549 cells after TYMS or DHFR knockdown, SYBR Green. Format: cell-based, human. The conditions noted are these: 5FU continuous for 3 days, read-out: IC50 value of 5FU following TYMS knockdown, A549. The method, then: as §1, §2
In data set [2] the test system is A549 cells. The experiment in a line: MTT cell proliferation assay of A549 cells transfected with thymidylate synthase siRNA. The data set is classed as cell-based, human. To be noted: 6, 12 and 50 nM siRNA; 72 h. The method, then: siRNA mediated silencing in Human A549 cells A549 cells (ATCC No. CCL-185), a human lung cancer cell line, were cultured in RPMI 1640 medium with 5% v/v dialyzed fetal calf serum. Cells were seeded at a density of 2×10^4 cells/100 μl in 96-well plates. Stealth™ siRNA duplexes targeting the thymidylate synthase (SEQ ID NO: 23) gene were transfected at concentrations of 6, 12, and 50 nM into the A549 cells using Lipofectamine 2000 transfection reagent (Invitrogen). After 72 h, cell viability was assessed by measuring cell proliferation using a standard MTT assay (Mosman, J. Immunol. Methods 65:55-63, 1983).

Data set [3] relates to A549 cells. The experiment in a line: Growth inhibition of siRNA-transfected A549 cells, SYBR Green I DNA content. The data set is classed as cell-based, human. The conditions noted are these: 10 nM siRNA; DNA content 96 hours after transfection. The essentials:
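Growth read-out: cellular DNA quantified with SYBR Green I (485/535 nm) 96 h after transfection, cells frozen, thawed and lysed in PBS/1% Triton X-100, pH 7. Cells (A549, 5×10^3 cells/cm^2) received 10 nM siRNA by RNAiMAX; non-specific siRNA served as control; triplicate wells averaged.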

Like-named read-outs stand apart in the source and are kept apart here.

On to “Alexa 555-labeled siRNA: Alexa 555-labeled control Stealth siRNA (Invitrogen) (chain 1 CCGCAACAACGCCATCTATGAGAAA; chain 2 CCGCAACAACGCCAUCUAUGAGAAA; Alexa 555 label, position not given here, Stealth siRNA, chemistry not given here; one strand in two spellings)”, for which the “cellular uptake of siRNA in tumor tissue (fluorescence)” value is “red punctuations were seen in some tumor cells, indicative of uptake of siRNA” in the data set on A549 tumors (6 h after injection) and “also observed in the samples taken 24 h after injection, although in slightly lower number of cells” with A549 tumors (24 h after injection). Further, the “intracellular localization of siRNA fluorescence” value in the data set on A549 tumors (6 h after injection, overlay with DAPI) is reported as “located in the cytoplasm around the periphery of the nuclei”.
“SEQ ID NO: 4804: non-specific control siRNA against an irrelevant target (chain 1 AGCAGAGGGAATTCATCTCTCAGGC; chain 2 AGCAGAGGGAAUUCAUCUCUCAGGC; chemistry not given here; one strand in two spellings) [reference compound]” had an average tumor volume in the data set on A549 xenografted tumors (IT#1: 50 μg i.t. 3 times per week for 2 weeks, day 15 after treatment initiation) of 238.7±41.4 mm^3. The tumor volume in the data set with A549 xenografted tumors (IT#2: 25 μg i.t. 3 times per week for 3 weeks, day 21 post-treatment initiation) stood at 248.9±37.3 mm^3; with A549 xenograft tumor (twenty-six days after cell inoculation, preliminary data) it was 154.3±23.7 mm^3. The average tumor size in the data set with A549 xenograft tumor (six weeks after the cell inoculation, 10 nM siRNA pre-implantation) came to 370.7±63.8 mm^3; in the data set with A549 xenograft tumor (thirty-three days after the cell inoculation, preliminary data) it was 172.3±36.1 mm^3.
“SEQ ID NO: 4833: siRNA targeting TYMS (chain 1 AGCAGAGGGAATTCATCTCTCAGGC; chain 2 AGCAGAGGGAAUUCAUCUCUCAGGC; chemistry not given here; one strand in two spellings)”: the IC50 in the data set with HCT-116 cells turned out to be 100 nM; in the data set with A549 cells [1] (cells transfected with 0.1 nM siRNA), 340 nM; in the data set with A549 cells [1] (cells transfected with 1 nM siRNA) it was 110 nM; in the data set with A549 cells [1] (cells transfected with 10 nM siRNA) it was 140 nM. Moreover, the “cell growth (MTT assay)” value with A549 cells [2] is reported as “dose-dependent inhibition of cell growth”. The “Growth Inhibition in A549 cells” value with A549 cells [3] is “+ (inhibits by at least 50%)”.
